{"source": "patent EP0563732A1", "about": "“7-oxo-7H-pyrido(1,2,3-de)(1,4)benzoxazinecarboxylic acids and esters and their use as antiviral agents” (BAYER AG, priority 1992, dated 1993)", "note": "Structures can show the parent of a compound that is named as a salt.", "data": [{"test_system": "Hepatitis B Virus", "assay": "HBV test system: HBV-DNA in the supernatant of transfected hepatoma cells (PEG precipitation, non-radioactive HBV DNA probe)", "type": "cell-based", "details": "HepG2.2.15, 50% inhibition of HBV-DNA concentration in supernatant, HEP G2.2.15 cells, read-out: IC₅₀", "from_the_text": "Der Nachweis wurde in mit Hepatitis B Virus DNA transfizierten Hepatomzellen (HEP G2.2.15) geführt. Die Ergebnisse der unten aufgeführten Beispiele wurden zu dem in der folgenden Literaturangabe [Sells, M.A.; Chen, M.L., Acs, G., Proc. Natl. Acad. Sci. USA S. 1005 - 1009, Vol. 84 (1987] beschriebenen HBV-Testsystem ermittelt:\nTransfizierte Hepatomzellen (HEP G2.2.15) wurden mit verschiedenen Konzentrationen an der jeweiligen Verbindung inkubiert. Durch Behandlung der transfizierten Hepatomzellinie HEP G2.2.15 mit den erfindungsgemäßen Verbindungen konnte das […] der virusspezifischen HBV-DNA im Überstand sowie eine Reduktion des HBsAg Spiegels gezeigt werden. Es wurde weiter gefunden, daß die erfindungsgemäßen Verbindungen zu einer Reduktion der replikativen Intermediate der Hepatitisviren führen. Im Überstand der Zellkulturen wurde nach PEG Fällung der Gehalt an HBV-DNA bestimmt. Dies geschah unter Verwendung einer nicht radioaktiv markierten HBV genomischen DNA Probe [Pauly, P., 1982, Ph.D. Thesis, University of Göttingen, F.R.G.; Köchel et al., 1990, EMBL, Accession-Nr. X 51790]. Gleichzeitig erfolgte der Nachweis der Beeinflussung der HBsAg Bildung mittels eines kommerziell erhältlichen Elisa Tests. Die angegebenen IC₅₀-Werte beziehen sich auf die Substratkonzentrationen, die unter den oben aufgeführten Testbedingungen eine 50%ige Hemmung der HBV-DNA Konzentration im Überstand bewirken. Tabelle A\nGleichzeitig erfolgte die Bestimmung des möglicherweise vorhandenen cytotoxischen Einflusses der erfindungsgemäßen Verbindungen mittels Kristallviolettfärbung bzw. über den Einbau von radioaktiv markiertem Thymidin in die zelluläre DNA.", "units": {"IC50": "µM"}, "values": [{"compound": "CC1=COc2c(N3CCOCC3)c(F)cc3c(=O)c(C(=O)O)cn1c23", "note": "[Beispiel 16]", "IC50": 5}, {"compound": "CN1CCN(c2c(F)cc3c(=O)c(C(=O)O)cn4c3c2OC(C(C)(C)C)=C4)CC1", "note": "[Beispiel 1, 2-tert-Butyl-9-fluor-10-(4-methyl-1-piperazinyl)-7-oxo-7H-pyrido[1,2,3-de][1,4]-benzoxacin-6-carbonsäure]", "IC50": 0.1}, {"compound": "CCOC(=O)c1cn2c3c(c(N4CCC(N)C4)c(F)cc3c1=O)OC(c1ccc(OC)cc1)=C2", "note": "(centres unmarked) [Beispiel 38, 10-(3-Amino-1-pyrrolidinyl)-9-fluor-2-(4-methoxyphenyl)-7-oxo-7H-pyrido[1,2,3-de][1,4]benzoxacin-6-carbonsäureethylester-hydrochlorid]", "IC50": 5}, {"compound": "COC(=O)c1cn2c3c(c(N4CCNCC4)c(F)cc3c1=O)OC=C2C", "note": "[Beispiel 33]", "IC50": 0.5}, {"compound": "CC1=COc2c(N3CCNCC3)c(F)cc3c(=O)c(C(=O)O)cn1c23", "note": "[Beispiel 39]", "IC50": 0.1}]}]}
